The source of these data is US8481514B2, “Therapeutical uses of inecalcitol” (Hybrigenics SA, priority 2009, dated 2013).

Data set [1] in a line: Dose finding and clinical tolerance study of inecalcitol with docetaxel-prednisone in HRPC patients (safety). It is filed as in vivo, human. The settings on record: for adverse events related to the drug: attribution of the AEs seen under the combination. Here is the method: Escalating oral dosages of inecalcitol were combined to chemotherapy in naive HRPC patients. Safety was evaluated in groups of 3-6 patients receiving inecalcitol every other day (qod) or daily (qd) on a 21-day cycle in combination with intravenous docetaxel (75 mg/m2 q3w) and oral prednisone (5 mg bid). Patients (pts) received up to six cycles unless unacceptable toxicity or disease progression. Primary endpoint was dose limiting toxicity (DLT) defined as grade 3 hypercalcemia within the first cycle. Calcemia, creatininemia and complete blood counts were assessed weekly; biochemistry, electrocardiogram and prostate specific antigen (PSA) every 3 weeks. Efficacy endpoint was PSA response defined as ≧30% decline within 3 months.
(§1) Inecalcitol was given to patients in soft gelatine capsules of different sizes, shapes and strengths depending on the dose level studied: one, two or four 40 μg capsules (size 11, oblong shape) for administration of 40, 80 or 160 μg/day, respectively; three or six 100 μg capsules (size 4, round shape) for administration of 300 or 600 μg/day, respectively; five 200 μg capsules (size 7.5, oval shape) for administration of 1,000 μg/day; five 400 μg capsules (size 14, oblong shape) for administration of 2 mg/day, and four 1 mg capsules (size 14, oblong shape) for administration of 4 mg/day. In all the capsules, inecalcitol was present in the fill content as a solution in medium chain triglycerides from fractionated coconut oil at different concentrations depending on the capsule strengths.

Data set [2] in a line: 9-month toxicokinetic study of once-a-day oral inecalcitol in monkeys (plasma concentrations). The settings on record: male mature monkeys, day 1 and day 272. The format is in vivo. Here is the method: FIG. 1 illustrates the mean plasma concentrations vs time obtained during a 9-month toxicology study on once-a-day oral inecalcitol performed in male mature monkeys.
(§2) On FIG. 1, mean plasma concentrations of inecalcitol are plotted vs. time on the first day of the study and close to its end, at day 272. The mean toxicokinetic profiles are almost superimposable, with a mean peak of about 1.2 ng/ml achieved as soon as 15 minutes after oral intake, and a steady disappearance from circulation within 4 hours.

Data set [3] can be described thus: Pharmacokinetics of oral inecalcitol in HRPC patients (LC/MS/MS of plasma). It is filed as in vivo. The settings on record: human patients. The procedure:
as §1
Inecalcitol was assayed as unchanged circulating compound in the plasma by liquid chromatography followed by tandem mass spectrometry (LC/MS/MS). […] At 600 μg and 1000 μg, mean peak values reached around 35 and 45 pg/ml (0.035 and 0.045 ng/ml) at 90 and 45 minutes, respectively.

For data set [4] the following is noted: Eelen et al. 2005; Verlinden et al. 2001; cited from earlier work.
A short description of data set [5]: 2-week toxicology study of twice-a-day oral inecalcitol in monkeys (calcemia, toxicity). The format is in vivo, cynomolgus monkeys. The settings on record: for plasma calcium level (mean±s.e.m.): same 4 animals. Here is the method:
(§3) On FIG. 2, mean plasma concentrations of inecalcitol are plotted vs. time on the first day of treatment with two successive administrations of inecalcitol around 8 AM and 7 PM, i.e. about 11 hours apart. […] In both instances, inecalcitol levels returned to basal levels within 4 hours. In the table below, plasma calcium levels (in mmoles/L, mean±s.e.m.) were monitored in the same 4 animals for two weeks before and for two weeks during the treatment period.

Data set [6] in a line: 9-month toxicology study of once-a-day oral inecalcitol in monkeys (calcemia, toxicity). It is filed as in vivo. Here is the method:
as §2

For data set [7], the system named is human breast cancer cells. The settings on record: in vitro and in vivo; Verlinden et al. 2000; cited from earlier work.
The conditions of data set [8]: Eelen et al. 2005; Verlinden et al. 2001; cited from earlier work. The source holds these as a separate data set.
Data set [9] can be described thus: 2-week toxicokinetic study of twice-a-day oral inecalcitol in monkeys (plasma concentrations). The format is in vivo, cynomolgus monkeys. The note with it: first day of treatment. The procedure:
FIG. 2 illustrates the mean plasma concentrations vs time obtained during a 2-week toxicology study on twice-a-day oral inecalcitol performed in male juvenile monkeys.
as §3

Setting [10] is: 50 pts treated, inecalcitol with docetaxel and prednisone.
[11] abbreviates: HRPC patients, oral 300 μg, 600 μg, 1000 μg (qod,qd), 2 mg (qd) or 4 mg (qd).
[12] abbreviates: male juvenile cynomolgus monkeys, twice daily oral, 2×1.6 mg each day, 2 weeks.
The mark [13] stands for this setting: male mature cynomolgus monkeys, daily oral, 9 months, up to highest tested dose 1.8 mg per day per monkey.

Each structure is given as a SMILES string. Where only a bound is given, the exact number is not on record here.

`C[C@H](CC#CC(C)(C)O)[C@H]1CC[C@@H]2/C(=C/C=C3C[C@@H](O)C[C@H](O)C3)CCC[C@@]21C` [inecalcitol, 19-nor-9,10-seco-14βH-cholesta-5(Z),7(E)-dien-23-ino-1α,3β,25-triol-23-yne]: in [1] (setting [10]), the “G1-2 adverse event: asthenia” value is 22 pts. The “G1-2 adverse event: constipation” value in [1] (setting [10]) was determined as 15 pts. In addition, the “G1-2 adverse event: diarrhea” value in [1] (setting [10]) worked out at 13 pts. For the same compound, the “G3-4 AE: arrhythmia” value in [1] (setting [10]) amounted to 2 pts. Besides, the “G3-4 AE: asthenia” value in data set [1] (setting [10]) turned out to be 3 pts. For the same compound, the “G3-4 AE: diarrhea” value in [1] (setting [10]) was found to be 1 pt. Also, the “G3-4 AE: general health deterioration” value in data set [1] (setting [10]) is recorded as 3 pts. In [1] (setting [10]), the “G3-4 AE: lymphopenia” value is 12 pts. In [1] (setting [10]), the “G3-4 AE: neutropenia” value was 36 pts. In data set [1] (HRPC patients, oral 40 μg to 4 mg qod or qd, with docetaxel and prednisone, 50 pts treated), the increased calcemia result is given as “No increased calcemia”. Also, the results for the hypercalcemia entry in [1] (setting [11]), in data set [5] (setting [12]) and in [6] (setting [13]) were “did not induce any hypercalcemia”, “no hypercalcemia” and “no hypercalcemia”, respectively. For the same compound, the toxic effect result in [1] (setting [11]) is on record as “did not induce any hypercalcemia or any toxic effect”. The “adverse events related to the drug” value in [1] is reported as “none”. The “mean peak plasma concentration” value in data set [2] (1.8 mg per day) is recorded as “about 1.2 ng/ml”. Besides, the disappearance from circulation in [2] was ≤ 4 h. Further, in data set [2], the “time of mean peak after oral intake” value was determined as 15 min. The peak plasma values result in data set [3] (oral 300 μg, lower limit of quantitation 10 pg/ml) is given as “barely detectable above the lower limit of quantitation”. Moreover, the “time of mean peak value” amounted to 90 min in data set [3] (oral 600 μg), 45 min in data set [3] (oral 1000 μg), 90 min in data set [3] (oral 2 mg) and 45 min in data set [3] (oral 4 mg). Moreover, the half-life in [3] (male, plasma, four mean profiles between 600 μg and 4 mg oral, read-out: approximate half-life) was in the range of 1 to 1.5 h. In data set [4], the “calcemic effects compared with calcitriol” value is listed as “markedly lower”. Moreover, the toxic effects result in data set [5] (setting [12]) and in data set [6] (setting [13]) was “no toxic effects” in each case. Further, the “plasma calcium level (mean±s.e.m.)” value is 2.68 ± 0.15 mmol/L in data set [5] (Day 7 of treatment, 2×1.6 mg each day); 2.76 ± 0.12 mmol/L in data set [5] (Day 13 of treatment, 2×1.6 mg each day); 2.61 ± 0.06 mmol/L in data set [5] (Day −6 (before treatment)); 2.66 ± 0.088 mmol/L in data set [5] (Day −13 (before treatment)); 2.53 ± 0.03 mmol/L in data set [6] (treated monkeys n = 6, Day 85); 2.49 ± 0.05 mmol/L in [6] (treated monkeys n = 6, Day 175). Moreover, the “plasma calcium level (mean±s.e.m.)” value was 2.51 ± 0.05 mmol/L in data set [6] (treated monkeys n = 6, Day 268) and 2.54 ± 0.11 mmol/L in data set [6] (treated monkeys n = 6, Day −12 (before treatment)). Also, the “changes in plasma calcium” value in data set [5] (two weeks before vs two weeks during treatment) is listed as “No significant changes”. Moreover, the maximal tolerated dose entry in data set [6] (9-month daily oral, highest tested dose 1.8 mg per day per monkey) is “has not been reached”. Besides, in data set [6] (different time points during the 9-month study), the “difference in plasma calcium levels between control and treated monkeys” value was “did not show any difference”. For the same compound, in data set [7], the “activity on growth of human breast cancer cells” value was “inhibiting the growth”. The “antiproliferative effects compared with calcitriol” value in data set [8] is on record as “enhanced”. The “return of inecalcitol levels to basal levels” value in data set [9] (after each of the two administrations) was ≤ 4 h. Also, the “peak mean plasma concentration, second administration” value in [9] (male juvenile monkeys, 1.6 mg oral around 7 PM) was determined as 2.50 ng/mL. Also, the “peak mean plasma concentration, first administration” value in data set [9] (male juvenile monkeys, 1.6 mg oral around 8 AM) turned out to be 2.75 ng/mL.
`CC(=O)O[C@@]12CO[C@@H]1C[C@H](O)[C@@]1(C)C(=O)[C@H](O)C3=C(C)[C@@H](OC(=O)[C@H](O)[C@@H](NC(=O)OC(C)(C)C)c4ccccc4)C[C@@](O)([C@@H](OC(=O)c4ccccc4)[C@H]21)C3(C)C` [docetaxel, reference compound]: the “adverse events related to the drug” value in [1] was “All these AEs”.
